Type in all cases: cell-based
For assay [1], the system named is NF-κB subunit p65 phosphorylation (S536). Put plainly: Western blot of p65 phosphorylation (S536) after DNA damage (irradiation or etoposide) in U2-OS cells. The settings on record: 1-hour pre-treatment, irradiation (IR, 20 Gy), 90 min. The procedure:
(§1) Fig.1: Identification of inhibitors specific for DNA damage-induced NF-κB activity. (A) Flowchart representing the high-throughput chemical library screening. A screen/counter-screen strategy was used by stimulating NF-κB in U2-OS cells with etoposide (50 µM for 90 min) and hits were counter-screened with TNFα (10 ng/ml for 20 min). Cells were pre-treated with compounds (10 µM) for 1 hour before stimulation, fixed, and percent p65 nuclear translocation measured by fluorescence microscopy. IC50 values were used for final selection. (B) Comparison of mean p65 nuclear translocation following either etoposide or TNFa stimulation after treatment with each counter-screened hit compound. Values were normalized to etoposide or TNFα positive controls. Specific inhibitors (red) of DNA damage-induced NF-κB signaling were defined by setting cut-off criteria (black line). […] (C) IC50 determination for MW01 (left) and MW05 (right) of p65 nuclear translocation, following either etoposide or TNFα treatment. […] IC50 noted with a dotted line. (D) Structures of compounds selected as leads for further analysis, MW01 (5-Hydroxy-10,11-dimethoxy-9H-benzo[c]indolo[3,2,1-ij][1,5]naphthyridin-9-one) and MW05 (3-Amino-7-methoxypyrazolo[3,4-b]quinolin-1-yl)-[3-(dimethylamino)phenyl]methanone). (E) Western blot analysis (top) and quantification (bottom) of NF-κB subunit p65 phosphorylation (S536) following 1-hour pre-treatment with DMSO, MW01 (10 µM), or MW05 (10 µM), in unstimulated, after 90 min irradiation (IR, 20 Gy), or after 20 min TNFα (10 ng/mL) conditions in U2- OS cells. B-actin was used as loading control after. The p-p65 signal was first normalized to β-actin loading control per sample, then each value to DMSO-treated unstimulated to evaluate relative activation of NF-κB. Ns: not significant; ***: p<0.001.
NF-κB was stimulated by DNA damage through either 20 Gy irradiation (IR) and analyzed after 90 minutes or by 10 ng/ml TNFα and analyzed after 20 minutes unless otherwise noted.
All compounds were pre-treated for 1-hour prior to NF-κB stimulation unless otherwise noted.
(§2) Cells were collected by scraping and lysed in Baeuerle lysis buffer supplemented with Protease (Thermo Fisher Scientific, 78429) and Phosphatase (Thermo Fisher Scientific, 78420) inhibitors after the appropriate treatment and time point. Proteins were quantified by Bradford assay (Bio-Rad, 5000006) and 20-50 µg of extracted proteins were loaded on 4-20% Protein Gel (Bio-Rad, 4568096) and then transferred onto a PVDF membrane (Bio-Rad, 1620177) using Tris-Glycine buffer with 20% of methanol. Blocking was performed for 1h with 5% not-fat dry milk in PBS 1X. Immunodetection was obtained using primary and secondary antibodies reported in Key Resources Table. The membranes were analyzed by ECL (Thermo Fisher Scientific, 34580) and detected by ChemiDoc XRS+ (Bio-Rad) using ImageLab software (Bio-Rad).
Background: A western blot detects proteins with antibodies after separation by electrophoresis.

Assay [2] shares this test system. Put plainly: Western blot of p65 phosphorylation (S536) after TNFα in U2-OS cells. The settings on record: 1-hour pre-treatment, TNFα 10 ng/ml, 20 min. The procedure:
as §1, with “(D) Structures of compounds selected as leads for further analysis, MW01 (5-Hydroxy-10,11-dimethoxy-9H-benzo[c]indolo[3,2,1-ij][1,5]naphthyridin-9-one) and MW05 (3-Amino-7-methoxypyrazolo[3,4-b]quinolin-1-yl)-[3-(dimethylamino)phenyl]methanone).” left out, “B-actin was used as loading control after. The p-p65 signal was first normalized to β-actin loading control per sample, then each value to DMSO-treated unstimulated to evaluate relative activation of NF-κB. Ns: not significant; ***: p<0.001.” left out
NF-κB was stimulated by DNA damage through either 20 Gy irradiation (IR) and analyzed after 90 minutes or by 10 ng/ml TNFα and analyzed after 20 minutes unless otherwise noted. […]
Cells were collected by scraping and lysed in Baeuerle lysis buffer supplemented with Protease (Thermo Fisher Scientific, 78429) and Phosphatase (Thermo Fisher Scientific, 78420) inhibitors after the appropriate treatment and time point. Proteins were quantified by Bradford assay (Bio-Rad, 5000006) and 20-50 µg of extracted proteins were loaded on 4-20% Protein Gel (Bio-Rad, 4568096) and then transferred onto a PVDF membrane (Bio-Rad, 1620177) using Tris-Glycine buffer with 20% of methanol. […]

Assay [3] has as its system Akt phosphorylation (S473). Put plainly: Western blot of Akt phosphorylation (S473) in U2-OS cells. Particulars: 1-hour pre-treatment. The method, then: Fig.2: MW01 and MW05 are potent and selective kinase inhibitors. […] Heatmap indicates lower IC50. […] (C) Western blot analysis of NF-κB p65 phosphorylation (S536) and Akt phosphorylation (S473) following 1-hour pre-treatment with DMSO, MW01 (10 µM), MW05 (10µM), PI-103 (1 µM), NU7441 (1 µM), or MU1210 (1 µM) in unstimulated, after 90 min irradiation (IR, 20 Gy), or after 20 min TNFα (10 ng/ml) conditions in U2-OS cells. (D) mRNA expression analysis of CLK2 (top), 48 hours after transfection with siNC, CLK2 si1, or CLK2 si2. mRNA expression analysis of NFKBIA (bottom), 48 hours after transfection with siNC, CLK2 si1, orCLK2 si2. Values are normalized to unstimulated siNC expressing cells. Statistical comparison was made between experimental conditions and respective paired siNC expressing controls. ns: not significant; **, ***, ****: p<0.01, p<0.001, p<0.000. (E) Western blot analysis of U2-OS cells after transfection with siNC or CLK2 si2 unstimulated, after irradiation (IR), or after TNFα treatment. Vinculin used as loading control. (F) IC50 (nM) of all CLK isoforms for MW01 and MW05. (G) Quantification from (E) with CLK2 knockdown and p-p65 quantification (top left and top right, respectively) and CLK4 knockdown and p-p65 (bottom left and bottom right, respectively. ns: not significant; **, ***, ****: p<0.01, p<0.001, p<0.0001.
as §2, with “Immunodetection was obtained using primary and secondary antibodies reported in Key Resources Table.” left out, “(Bio-Rad). […]” for “(Bio-Rad).”

Molecules are shown by their SMILES.

As for `Cn1cc(-c2ccc3occ(-c4ccccc4-c4ccccc4)c3n2)cn1` [MU140, reference compound], the “phosphorylation of p65 at serine 536 after DNA damage” value (“phosphorylation … after DNA damage” for short) in assay [1] is on record as “not”.

Consider `Cn1cc(-c2ccc3occ(-c4cccc(-c5ccncc5)c4)c3n2)cn1` [MU-1210, reference compound], for which the “phosphorylation … after DNA damage” value in assay [1] is on record as “reduction in p65 phosphorylation”.

With `O=c1cc(N2CCOCC2)oc2c(-c3cccc4c3sc3ccccc34)cccc12` [NU-7441, reference compound], the “phosphorylation of p65 at serine 536, TNFα-stimulated” value in assay [2] is on record as “did not reduce p-p65”. The “phosphorylation … after DNA damage” value in assay [1] is given as “did not reduce p-p65”.

Take `Oc1cccc(-c2nc(N3CCOCC3)c3oc4ncccc4c3n2)c1` [PI-103, reference compound]: in assay [3], the “reduction of p-Akt” value was “complete reduction”.

For the origin of these results see EP4467141A1, “PYRAZOLO-QUINOLINES AS SELECTIVE INHIBITORS OF GENOTOXIC STRESS-INDUCED IKK/NF- KB PATHWAYS FOR CANCER THERAPY” (Max-Delbrück-Centrum für Molekulare Medizin in der …, priority 2023, dated 2024).
